A short description of data set [1]: Metabolic stability in human liver microsomes. The class given is in vitro ADME. The settings on record: for metabolic stability as compared to dasatinib: human liver microsomes. The procedure: FIG. 1. Metabolic stability of compounds in human liver microsomal incubations. […] Concentrations at specified times were determined by LC-MS/MS.
The incubation reactions at various time points were quenched by adding 2× volumes of acetonitrile containing 100 nM reserpine. The quenched incubation samples were centrifuged at 4000 RPM for 10 min, and the supernatants injected for LC/MS/MS analysis. LC/MS/MS analysis was carried out on a AB Sciex 4000 Q Trap LC/MS/MS system coupled with Shimadzu Prominence UFLCXR 20 series (including a CBM-20A controller, two LC-20ADXR solvent delivery units, SIL-20AC HT autosampler, CTO-20A column oven, and a SPD-20A UV detector).
A general note: Liver microsomes are a subcellular fraction often used to study metabolism.

Data set [2] can be described thus: Pharmacokinetics in Sprague-Dawley rats, 2-in-1 dosing. The class given is in vivo. The following applies: Sprague-Dawley, rat; for clearance: read-out: CL (plasma clearance) (converted); for Vd: read-out: V (volume of distribution); for AUC(0-inf) / AUC(0-t) / half-life / Cmax / Tmax: single dose. The procedure: Sprague-Dawley rats (approximate weight 275-300 g, N=3) were dosed intravenously at 5 mL/kg and orally at 10 mL/kg with the above dosing solutions. Blood samples were collected into tubes containing EDTA as the anticoagulant at 0, 0.25 (intravenous only), 0.5, 1, 2, 4, 8, 10, and 24 h post-dosing, and plasma samples were prepared by centrifugation. The plasma samples were mixed with 3× volumes of acetonitrile containing 100 nM reserpine as the internal standard, and centrifuged at 4000 RPM for 15 min. The supernatants were injected for LC/MS analysis which were carried out on a AB Sciex 4000 Q Trap LC/MS/MS system coupled with Shimadzu Prominence UFLCXR 20 series (including a CBM-20A controller, two LC-20ADXR solvent delivery units, SIL-20AC HT autosampler, CTO-20A column oven, and a SPD-20A UV detector). The samples were separated on a Phenomenex Columbus column (C18, 4 μm, 50×2 mm) eluted with two solvent systems: 2 mM ammonium acetate in water containing 0.1% formic acid (A) and methanol (B) at a linear gradient starting with 25% B. Electrospray ionization in positive mode was used to acquire LC/MS/MS data.

[3] abbreviates: plasma, iv, 1 mg/kg, intravenous 1 mg/kg, single dose (Table 2).
Where [4] appears, read: plasma, iv, 1 mg/kg, intravenous 1 mg/kg, single dose (Table 3).
The mark [5] stands for this setting: plasma, iv, 1 mg/kg, intravenous 1 mg/kg, plasma (Table 2).
The mark [6] stands for this setting: plasma, iv, 1 mg/kg, intravenous 1 mg/kg, plasma (Table 3).
The mark [7] stands for this setting: plasma, po, 2.5 mg/kg, PO 2.5 mg/kg, plasma (Table 2).
Where [8] appears, read: plasma, po, 5 mg/kg, PO 5 mg/kg, plasma (Table 3).

Read-outs that look alike come from different tables or passages of the source.

The term clearance denotes the volume of plasma or blood freed of the substance per unit of time. By AUC(0-inf) is commonly meant the area under the concentration-time curve extrapolated to infinity. The low end stands for low exposure, the high end for high exposure. One may read the AUC(0-t) as the area under the concentration-time curve up to a stated or last time point. Higher therefore signals high exposure. What is called bioavailability is dose-corrected exposure relative to a reference, in per cent. Usually Cmax stands for the maximum level reached in the sampled fluid or tissue. Usually Tmax stands for the time from dosing to the highest level.

For `Cc1nc(Nc2ncc(C(=O)Nc3c(C)cccc3Cl)s2)cc(N2CCC(O)CC2)n1` [Compound IX, N-(2-chloro-6-methylphenyl)-2-[[2-methyl-6-(4-hydroxypiperidin-1-yl)pyrimidin-4-yl]amino]thiazole-5-carboxamide], the microsomal CLint at 1 μM in data set [1] (human, liver microsomes, 1 μM, human liver microsomes 0.5 mg/mL, NADPH and UDPGA, 37° C., read-out: CLint (intrinsic clearance)) is 56 µL/min/mg. Moreover, in data set [1] (human, liver microsomes, 1 μM, human liver microsomes 0.5 mg/mL, NADPH and UDPGA, 37° C., read-out: In vitro t1/2), the half-life at 1 μM is 0.417 h.

For `[2H]c1cc(C)c(NC(=O)c2cnc(Nc3cc(N4CC[C@H](N)C4)nc(C)n3)s2)c(Cl)c1` [Compound VI, N-(2-chloro-4-dutero-6-methylphenyl)-2-[[2-methyl-6-((S)-3-aminopyrrolidin-1-yl)pyrimidin-4-yl]amino]thiazole-5-carboxamide], the “metabolic stability as compared to dasatinib” value in data set [1] is “significantly greater stability”.

Regarding `[2H]c1cc(C)c(NC(=O)c2cnc(Nc3cc(N4CC[C@@H](N)C4)nc(C)n3)s2)c(Cl)c1` [Compound VII, N-(2-chloro-4-deutero-6-methylphenyl)-2-[[2-methyl-6-((R)-3-aminopyrrolidin-1-yl)pyrimidin-4-yl]amino]thiazole-5-carboxamide], the “metabolic stability as compared to dasatinib” value in data set [1] was “significantly greater stability”.

With `Cc1nc(Nc2ncc(C(=O)Nc3c(C)cccc3Cl)s2)cc(N2CCCCC2)n1` [Compound VIII, N-(2-chloro-6-methylphenyl)-2-[[2-methyl-6-(piperidin-1-yl)pyrimidin-4-yl]amino]thiazole-5-carboxamide], the “metabolic stability as compared to dasatinib” value in data set [1] is on record as “significantly greater stability”.

In the case of `Cc1nc(Nc2ncc(C(=O)Nc3c(C)cccc3Cl)s2)cc(N2CC[C@H](N)C2)n1` [Compound XII, N-(2-chloro-6-methylphenyl)-2-[[2-methyl-6-((S)-3-aminopyrrolidin-1-yl)pyrimidin-4-yl]amino]thiazole-5-carboxamide], in data set [1], the “metabolic stability as compared to dasatinib” value is “significantly greater stability”.

Consider `Cc1nc(Nc2ncc(C(=O)Nc3c(C)cccc3Cl)s2)cc(N2CC[C@@H](N)C2)n1` [Compound XIII, N-(2-chloro-6-methylphenyl)-2-[[2-methyl-6-((R)-3-aminopyrrolidin-1-yl)pyrimidin-4-yl]amino]thiazole-5-carboxamide], for which, in data set [1], the “metabolic stability as compared to dasatinib” value is reported as “significantly greater stability”.

With `Cc1nc(Nc2ncc(C(=O)Nc3c(C)cccc3Cl)s2)cc(N2CCN(CCO)CC2)n1` [Dasatinib, reference compound], the results for the clearance in data set [2] (setting [3]) and in data set [2] (setting [4]) were 21.3 mL/min/kg and 16.5 mL/min/kg, respectively. Further, the Vd is 3 L/kg in data set [2] (setting [3]) and 2 L/kg in data set [2] (setting [4]). Besides, the area under the curve AUC(0-inf) in data set [2] (setting [5]) was determined as 784 ± 54 ng·h/mL; in data set [2] (setting [6]), 1010 ± 68 ng·h/mL; in data set [2] (setting [7]), 196 ± 85 ng·h/mL; in data set [2] (setting [8]), 97 ± 22 ng·h/mL. Further, the AUC(0-t) in data set [2] (setting [5]) was 783 ± 54 ng·h/mL; in data set [2] (setting [6]), 1010 ± 68 ng·h/mL; in data set [2] (setting [7]), 193 ± 86 ng·h/mL; in data set [2] (setting [8]) it was 93 ± 23 ng·h/mL. In addition, the half-life is 1.5 h in data set [2] (plasma, iv, 1 mg/kg, intravenous 1 mg/kg, plasma (Table 2), read-out: t1/2 (converted)); 1.7 ± 0.3 h in data set [2] (plasma, iv, 1 mg/kg, intravenous 1 mg/kg, plasma (Table 3), read-out: t½ (converted)); 3.5 ± 0.5 h in data set [2] (plasma, po, 2.5 mg/kg, PO 2.5 mg/kg, plasma (Table 2), read-out: t1/2 (converted)); 5.9 ± 1.5 h in data set [2] (plasma, po, 5 mg/kg, PO 5 mg/kg, plasma (Table 3), read-out: t½ (converted)). The bioavailability in data set [2] (plasma, PO 2.5 mg/kg versus intravenous 1 mg/kg, AUCinf dose normalized (Table 2), read-out: F (percent oral bioavailability)) worked out at 9.8 ± 3.6%. In addition, the Cmax is 15 ± 5 ng/mL in data set [2] (PO 2.5 mg/kg, plasma (Table 2)) and 7 ± 7 ng/mL in data set [2] (PO 5 mg/kg, plasma (Table 3)). The Tmax in data set [2] (PO 2.5 mg/kg, plasma (Table 2)) amounted to 5.5 ± 4.3 h; in data set [2] (PO 5 mg/kg, plasma (Table 3)) it was 0.5 h.

For the origin of these results see patent US20180099961A1, “PROTEIN KINASE INHIBITORS” (Princeton Drug Discovery Inc, priority 2016, published 2018).
